Publication PMC8509669 (2021)

What was measured:
Assay in all cases: ThT fluorescence light-up
[1] = system: FenA5-ThT (DNA, aptamer) ACGACCGCAGGGCGTGAGAGCCGGAACGGTGCATCGTCGT; conditions: 10 mM NaCl; 10 mM Tris-HCl pH 7.0, 30 °C; 1 µM aptamer
[2] = system: FenA2-ThT (DNA, aptamer) ACGACGGGCCGAGTAGTCTCCACGATTGATCGGAAGTCGT; conditions: 10 mM NaCl; 10 mM Tris-HCl pH 7.0, 30 °C; 1 µM aptamer; peak signal at 1:8 sensor:ThT
[3] = system: FenA3-ThT (DNA, aptamer) CCGCAGGTCAGGTTGAGAGGATCCCGATTGCGG; conditions: 10 mM NaCl; 10 mM Tris-HCl pH 7.0, 30 °C; 1 µM aptamer
[4] = system: FenA4-ThT (DNA, aptamer) ACGACCGCAGGTTGTCTGAGCCGACAGGTTGCATGTCGT; conditions: 10 mM NaCl; 10 mM Tris-HCl pH 7.0, 30 °C; 1 µM aptamer
[5] = system: FenA1-ThT (DNA, aptamer) ACGACCACAGGGAGTAAGAGGCCGCCAGATTGTAAGTCGT; conditions: 10 mM NaCl; 10 mM Tris-HCl pH 7.0, 30 °C; 1 µM aptamer

In the case of `Cc1ccc2c(c1)sc(-c1ccc(N(C)C)cc1)[n+]2C`, the binding [1] is reported as “weak”, the binding [2] is reported as “yes” and the binding [3] is reported as “weak”. For the same compound, the binding [4] was “weak” and the binding [5] was “weak”.
